Experimental data from patent US20240132461A1, “FLAVONE DEAZA SPERMIDINE ANALOGUES AND THEIR USE TREATING CANCER” (FLORATEK PHARMA S.A., priority 2021, published 2024).
Where a name gives a salt, the structure may show the parent alone.

Tests used:
[1] = test system: A375; experiment: Cell viability assay, melanoma cell line A375; assay type: cell-based; conditions: Homo sapiens, A-375
Description: (§1) Antitumor activity of the compounds and doxorubicin as a positive control was assessed by using the CellTiter-Blue Cell Viability Assay (Promega, #G8082) or CellTiter-Glow® Luminescent Cell Viability assay (Promega # G7572) according to the manufacturer's instructions. The compounds were tested at 5 or 6 concentrations in half-log increments (highest concentration 30 μM-100 μM) in duplicate or triplicate well conditions.
(§2) Tumor cells were grown at 37° C. in a humidified atmosphere with 5% CO2 in RPMI 1640 or DMEM medium, supplemented with 10% (v/v) fetal calf serum and 50 μg/ml gentamicin for up to 20 passages, and were passaged once or twice weekly. Cells were harvested using TrypLE or PBS buffer containing 1 mM EDTA, and the percentage of viable cells is determined using a CASY Model TT cell counter (OMNI Life Science). Cells were harvested from exponential phase cultures, counted and plated in 96 well flat-bottom microtiter plates at a cell density depending on the cell line's growth rate (4,000-20,000 cells/well depending on the cell line's growth rate, up to 60,000 for hematological cancer cell lines) in RPMI 1640 or DMEM medium supplemented with 10% (v/v) fetal calf serum and 50 μg/ml gentamicin (140 μl/well). Cultures were incubated at 37° C. and 5% CO2 in a humidified atmosphere. After 24 h, 10 μl of test compounds or control medium are added, and left on the cells for another 72 h. Compounds were serially diluted in DMSO, transferred in cell culture medium, and added to the assay plates. The DMSO concentration was kept constant at <0.3% v/v across the assay plate. Viability of cells was quantified by the CellTiter-Blue® cell viability assay (Promega G8081) or CellTiter-Glow® Luminescent Cell Viability assay (Promega # G7572). Fluorescence (FU) was measured by using the EnSpire® multimode plate reader (Perkin Elmer) (excitation λ=570 nm, emission λ=600 nm) or luminescent detection of ATP in viable cells was used as parameter for proliferation. Luminescence was measured with the microplate luminometer (Promega or Perkin Elmer).
(§3) Sigmoidal concentration-response curves were fitted to the data points (test-versus-control, T/C values) obtained for each tumor model using 4 parameter non-linear curve fit (Charles River DRS Datawarehouse Software) or with GraphPad prism 5.02 software. IC50 values are reported as absolute IC50 values, being the concentration of test compound at the intersection of the concentration-response curves with T/C=50%

[2] = test system: melanoma cell lines; experiment: Cell viability assay, melanoma cell lines (summary); assay type: cell-based; conditions: summary of Tables 14A and 14B; read-out: IC50s, melanoma cell lines growth
Description: as §1, §2, §3

[3] = test system: Panc-1; experiment: Cell viability assay, pancreatic carcinoma cell line Panc-1; assay type: cell-based; conditions: Homo sapiens; Panc-1 pancreatic carcinoma cell line
Description: as §1, §2, §3

[4] = test system: pancreatic carcinoma cell; experiment: Cell viability assay, pancreatic carcinoma cell lines (summary); assay type: cell-based; conditions: summary of Table 12; read-out: IC50s, pancreatic carcinoma cell growth
Description: as §1, §2, §3

[5] = test system: MIA-Pa-Ca-2; experiment: Cell viability assay, pancreatic carcinoma cell line MIA-Pa-Ca-2; assay type: cell-based; conditions: Homo sapiens, MIA PaCa-2; MIA-Pa-Ca-2 pancreatic carcinoma cell line
Description: as §1, §2, §3

[6] = test system: HCT-116; experiment: Cell viability assay, colon cancer cell line HCT-116; assay type: cell-based
Description: as §1
Tumor cells were grown at 37° C. in a humidified atmosphere with 5% CO2 in RPMI 1640 or DMEM medium, supplemented with 10% (v/v) fetal calf serum and 50 μg/ml gentamicin for up to 20 passages, and were passaged once or twice weekly. Cells were harvested using TrypLE or PBS buffer containing 1 mM EDTA, and the percentage of viable cells is determined using a CASY Model TT cell counter (OMNI Life Science). Cells were harvested from exponential phase cultures, counted and plated in 96 well flat-bottom microtiter plates at a cell density depending on the cell line's growth rate (4,000-20,000 cells/well depending on the cell line's growth rate, up to 60,000 for hematological cancer cell lines) in RPMI 1640 or DMEM medium supplemented with 10% (v/v) fetal calf serum and 50 μg/ml gentamicin (140 μl/well). […] Viability of cells was quantified by the CellTiter-Blue® cell viability assay (Promega G8081) or CellTiter-Glow® Luminescent Cell Viability assay (Promega # G7572). […]

[7] = test system: lung carcinoma cell; experiment: Cell viability assay, lung carcinoma cell lines (summary); assay type: cell-based; conditions: summary of Tables 7A-E; read-out: IC50s, lung carcinoma cell growth
Description: as §1, §2, §3

[8] = test system: H69AR; experiment: Cell viability assay, resistant small cell lung carcinoma cell line H69AR; assay type: cell-based; conditions: H69AR multiple drug resistant small cell lung carcinoma cell line
Description: as §1, §2, §3
The multiple drug resistant cell line H69AR obtained from ATCC, was established from NCI-H69 cells that were grown in the presence of increasing concentrations of adriamycin (doxorubicin). The H69AR cell line is approximately 50-fold resistant to adriamycin as compared to the parental NCI-H69 cell line. SND141, SND142, SND143, SND146, SND147 and SND148 inhibited the resistant cell line H69AR with IC50s below 5 μM, as presented in Table 8.

[9] = In vivo maximum tolerated dose in NOG mice
Description: In order to evaluate the general toxicity of selected SND compounds in an animal model, a maximum tolerated dose (MTD) in NOG mice has been undertaken. Three mice per group were treated daily or every other day over 8 days at various doses between 5 mg/kg and 10 mg/kg. Administration of the compounds was i.p. A stock solution of the compounds (40 mg/ml in DMSO) was prepared and frozen at −20° C. in aliquots for each treatment. […] Body weights were measured before each treatment. Mice were further observed for 1 week after the last treatment.

[10] = test system: CALU-6; experiment: Cell viability assay, non-small cell lung carcinoma cell line CALU-6; assay type: cell-based; conditions: Homo sapiens; CALU-6 non-small cell lung carcinoma cell line
Description: as §1, §2, §3

[11] = test system: LN-229; experiment: Cell viability assay, brain carcinoma cell line LN-229; assay type: cell-based; conditions: Homo sapiens; LN-229 brain carcinoma cell line, 72 h, absolute IC50
Description: as §1, §2, §3

[12] = test system: MDA-MB-468; experiment: Cell viability assay, breast carcinoma cell line MDA-MB-468; assay type: cell-based; conditions: Homo sapiens; MDA-MB-468 breast carcinoma cell line
Description: as §1
as §2, with “Elmer). […]” for “Elmer).”

[13] = test system: breast cancer cell; experiment: Cell viability assay, breast cancer cell lines (summary); assay type: cell-based; conditions: summary of Tables 4A and 4B; read-out: IC50s, breast cancer cell growth
Description: as §1, §2, §3

[14] = test system: NCI-H292; experiment: Cell viability assay, mucoepidermoid pulmonary and adenocarcinoma, NCI-H292; assay type: cell-based; conditions: Homo sapiens
Description: as §1
as §2, with “Elmer). […]” for “Elmer).”

[15] = test system: U-251; experiment: Cell viability assay, brain carcinoma cell line U-251; assay type: cell-based; conditions: Homo sapiens; U-251 brain carcinoma cell line, 72 h, absolute IC50
Description: as §1, §2, §3

[16] = test system: NCI-H441; experiment: Cell viability assay, mucoepidermoid pulmonary and adenocarcinoma, NCI-H441; assay type: cell-based; conditions: Homo sapiens
Description: as §1
as §2, with “Elmer). […]” for “Elmer).”

[17] = test system: MeWo; experiment: Cell viability assay, melanoma cell line MeWo; assay type: cell-based; conditions: Homo sapiens
Description: as §1
as §2, with “Elmer). […]” for “Elmer).”

[18] = test system: DMS114; experiment: Cell viability assay, small cell lung carcinoma cell line DMS114; assay type: cell-based; conditions: Homo sapiens, DMS-114
Description: as §1
as §2, with “Elmer). […]” for “Elmer).”

[19] = test system: U-87MG; experiment: Cell viability assay, brain carcinoma cell line U-87MG; assay type: cell-based; conditions: Homo sapiens; U-87MG brain carcinoma cell line, 72 h, absolute IC50
Description: as §1, §2, §3

[20] = test system: SH-SY-5Y; experiment: Cell viability assay, brain carcinoma cell line SH-SY-5Y; assay type: cell-based; conditions: Homo sapiens, SH-SY5Y; SH-SY-5Y brain carcinoma cell line, 72 h, absolute IC50
Description: as §1
as §2, with “Elmer). […]” for “Elmer).”

[21] = test system: NCI-H1437; experiment: Cell viability assay, non-small lung carcinoma cell line NCI-H1437; assay type: cell-based; conditions: Homo sapiens
Description: as §1, §2, §3

[22] = test system: HL-60; experiment: Cell viability assay, acute promyelocytic leukemia cell line HL-60; assay type: cell-based; conditions: Homo sapiens; HL-60 acute promyelocytic leukemia cell line
Description: as §1, §2, §3

[23] = test system: brain cancer cell; experiment: Cell viability assay, brain cancer cell lines (summary); assay type: cell-based; conditions: summary of Tables 3A-D; read-out: IC50s, brain cancer cell growth
Description: as §1, §2, §3

Compound | IC50 [1] [µM] | IC50 [2] [µM] | IC50 [7] [µM] | IC50 [10] [µM] | IC50 [12] [µM] | IC50 [13] [µM] | IC50 [15] [µM] | IC50 [19] [µM] | IC50 [23] [µM] | further results
COc1c(O)ccc2c(=O)cc(-c3ccc(CCCCN(C)C)cc3)oc12 [SND141, 2-(4-(4-(dimethylamino)butyl)phenyl)-7-hydroxy-8-methoxy-4H-chromen-4-one] | – | – | – | – | – | – | – | – | – | IC50 [3]: 3.91 µM; IC50 [4]: < 10 µM; IC50 [5]: 2.3 µM
O=c1cc(-c2ccc(CCCN3CCCCC3)cc2)oc2c(O)c(O)ccc12 [SND172] | – | – | – | – | – | – | – | – | – | IC50 ([6]; HCT-116 colon cancer cell line): 11.4 µM; IC50 ([6]; Homo sapiens, HCT-116, HCT-116 colon cancer cell line): < 20 µM
COc1c(O)ccc2c(=O)cc(-c3ccc(CCCCN4CCOCC4)cc3)oc12 [SND147, 7-hydroxy-8-methoxy-2-(4-(4-morpholinobutyl)phenyl)-4H-chromen-4-one] | – | – | < 20 | 12.2 | – | – | – | – | – | IC50 [8]: 2.6 µM; IC50 ([8]; Homo sapiens, H69AR): < 5 µM; IC50 [3]: 3.8 µM; tolerability at the highest dose administered ([9]; 8-10 mg/kg i.p., daily or every other day over 8 days): well tolerated; MTD at 8 days ([9]; mouse, in vivo, ip, repeated i.p. administration, MTD not reached, read-out: maximum tolerated dose (MTD), estimated): > 10 mg/kg; IC50 [4]: < 10 µM; IC50 [5]: 2.02 µM
CN(CCCCc1ccc(-c2cc(=O)c3ccc4c(c3o2)OCO4)cc1)CCCN1CCCCC1 [SND391] | 1.3 | < 10 | < 20 | 4 | 1.2 | < 10 | 3.9 | 5.1 | < 10 | IC50 [11]: 2.8 µM; IC50 [14]: 0.98 µM; IC50 [16]: 1.2 µM; IC50 [17]: 1.9 µM; IC50 [18]: 1.1 µM; IC50 [20]: 3 µM; IC50 [21]: 1.4 µM; IC50 [22]: 2.4 µM
CCN(CCCCc1ccc(-c2cc(=O)c3ccc4c(c3o2)OCO4)cc1)Cc1ccccc1OC [SND394] | – | – | < 20 | 8.9 | 3.8 | < 10 | 7.6 | 7.6 | < 10 | IC50 [11]: 2.9 µM; IC50 [14]: 1.9 µM; IC50 [16]: 3.2 µM; IC50 [18]: 3.1 µM; IC50 [21]: 2.1 µM; IC50 [22]: 2.8 µM

The next lines start with results.

IC50 [1] [µM] | IC50 [2] [µM] | IC50 [7] [µM] | IC50 [10] [µM] | IC50 [12] [µM] | IC50 [13] [µM] | IC50 [15] [µM] | IC50 [19] [µM] | IC50 [23] [µM] | Compound | further results
10 | < 10 | – | – | – | – | – | – | – | CN(CCCc1ccc(-c2cc(=O)c3ccc(O)c(O)c3o2)cc1)CCN1CCN(C)CC1 [SND173, 7,8-Dihydroxy-2-(4-(3-(methyl(2-(4-methylpiperazin-1-yl)ethyl)amino)propyl)phenyl)-4H-chromen-4-one trihydrochloride] | –
2.7 | < 10 | < 20 | 7 | 3.2 | < 10 | 6.8 | 7.1 | < 10 | CN(CCCCc1ccc(-c2cc(=O)c3ccc4c(c3o2)OCO4)cc1)C12CC3CC(CC(C3)C1)C2 [SND393] | IC50 [20]: 4.7 µM
